How the values were obtained:
Type in all cases: biochemical
Bst DNA polymerase v.2.0 = assay: Flow cytometry assay: tolerance of dye-labeled dUTP* compared to dUTP analogs (Example 7); conditions: for Tolerance: tolerance of dUTP* compared to the named dUTP^0
Method: A solution of biotinylated template (2 microliters (μL) of 100 μM) and dye-labeled primer (4 μL of 100 μM) were combined in annealing buffer (40 μL; Tris (10 millimolar (mM)), EDTA (1 mM), NaCl (100 mM)). The resulting solution was heated to 95° C. and allowed to slowly cool to room temperature. A portion of this solution (8 μL) was mixed with streptavidin-labeled magnetic beads (4 μL of Invitrogen Dynabeads™ MyOne™ Streptavidin C1, 10 milligrams/milliliter (mg/mL); washed and eluant removed) and 2× bead wash buffer (8 μL; 10 mM Tris, pH 7.5, 1 mM EDTA, 2 M NaCl, 0.01% Triton X-100). After washing with TET solution (10 mM Tris, 1 mM EDTA, 0.05% Triton X-100) the beads were treated with Bst DNA polymerase v.2.0 (8 μL of 8 units (U)/μL; New England Biolabs) for five minutes. The excess enzyme was removed by washing with TET and the beads were suspended in 1×DNA polymerase buffer solution (20 mM Tris, pH 8, 10 mM NaCl, 2 mM MgCl2, 0.01% Triton X-100). The sequence of the biotinylated template was /52 Bio//iSp18/[…] […] (SEQ ID NO: 12), where “5” is indicative of the 5′-end of the oligo, 2-Bio indicates dual biotin, and iSP18 indicates a PEG spacer. […] […] (SEQ ID NO: 13), where “5” indicates the 5′-end of the oligo and JOE indicates a fluorescent dye attached to the oligo.
Next, a portion of the suspended magnetic beads (10 μL) were removed and placed in a PCR tube. A solution of nucleotides (10 μL) was added to the tube and the tube incubated for 40 seconds (s) at 50° C. The enzyme reaction was stopped with the addition of 5 μL of 50 mM EDTA. The beads were washed with 2×100 μL TET and resuspended in 20 μL TET. A portion of the bead solution (1 μL) was added to TE (200 μL) and the beads examined for red fluorescence on a flow cytometer (BD Accuri™, APC channel). The eluant of the remaining beads was removed and 40 μL of 95:5 formamide:10 mM EDTA was added to the beads. A portion of the formamide solution (1 μL) was added to 40 μL 95:5 formamide EDTA. The solutions were examined by capillary electrophoresis (CE) on an ABI 3730 instrument and the peaks identified and quantitated by peak height. The experimental protocol is summarized schematically in FIG. 2.
Tolerance was measured at two molar fractions, […] and 0.05, for each of the four dUTP analogs.

Bst DNA polymerase = molecular target: T1, Bst DNA polymerase (Geobacillus stearothermophilus, UniProt P52026); assay: Stepwise sequencing with TTP and E-dUTP, context metric (Example 8); conditions: 0.05 fraction of dUTP*
T1 sequence (P52026 1-876): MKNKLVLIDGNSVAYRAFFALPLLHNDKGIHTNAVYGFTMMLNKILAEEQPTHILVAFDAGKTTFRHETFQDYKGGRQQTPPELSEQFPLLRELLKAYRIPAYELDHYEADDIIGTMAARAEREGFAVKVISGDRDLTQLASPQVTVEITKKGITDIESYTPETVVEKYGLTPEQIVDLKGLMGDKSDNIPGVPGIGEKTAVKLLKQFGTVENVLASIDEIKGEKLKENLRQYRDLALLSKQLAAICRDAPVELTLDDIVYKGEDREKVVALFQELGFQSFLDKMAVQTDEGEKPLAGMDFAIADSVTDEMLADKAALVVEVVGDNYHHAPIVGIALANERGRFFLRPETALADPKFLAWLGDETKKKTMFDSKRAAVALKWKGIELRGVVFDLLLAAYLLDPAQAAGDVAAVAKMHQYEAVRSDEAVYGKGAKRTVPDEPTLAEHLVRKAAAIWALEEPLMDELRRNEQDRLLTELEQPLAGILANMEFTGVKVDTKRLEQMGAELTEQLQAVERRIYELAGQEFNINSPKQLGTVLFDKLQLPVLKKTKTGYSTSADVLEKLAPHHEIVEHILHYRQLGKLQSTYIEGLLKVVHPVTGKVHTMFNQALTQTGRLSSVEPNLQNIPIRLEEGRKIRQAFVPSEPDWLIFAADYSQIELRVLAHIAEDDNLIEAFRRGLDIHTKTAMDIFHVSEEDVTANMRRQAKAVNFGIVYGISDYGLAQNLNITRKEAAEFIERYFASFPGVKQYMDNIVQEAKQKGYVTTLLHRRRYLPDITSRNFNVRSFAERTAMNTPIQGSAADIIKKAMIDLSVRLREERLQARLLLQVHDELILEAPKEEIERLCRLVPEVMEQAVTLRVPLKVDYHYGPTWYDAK
Text: A microscope slide surface was modified with polyaminosilane to allow the attachment of 1 micron beads each containing one of three different oligonucleotide templates. To each template was bound an oligonucleotide primer and Bst DNA polymerase. Solutions of mixtures of labeled and unlabeled nucleotide, of one type at a time, were exposed to the surface, followed by a wash solution. The fluorescence of labeled beads was detected and quantitated. The fluorescence label was cleaved by treatment with tris(hydroxypropyl)phosphine (THP) after each step.
Context was measured for each experiment. Context is given by the context metric, C, which is defined as the (maximum-minimum signal)/average signal.

Bst 2.0 DNA polymerase = assay: Homopolymer assays of nucleotide analogs (Example 10); conditions: Natural Nucleotide T (TTP = 1); template oligo 332, primer 221L
Method: A homopolymer assay was performed to investigate the effectiveness of E-dCTP and P-dUTP as nucleotide analogs of dCTP. 50 μl solutions containing a template nucleic acid molecule and primer and Bst 2.0 DNA polymerase are placed in a microplate reader and the fluorescence of the solution is measured in kinetic mode. A fluorescein attached to an oligonucleotide (indicated with a * in FIG. 7) was quenched in the substrate due to the proximity of complementary G bases. Addition of dCTP and/or dCTP analogs causes extension of the 3′ end of the primer, formation of double-stranded DNA, and unquenching of the fluorescein. The fluorescence increases with the addition of multiple nucleotides.
Additional homopolymer assays were performed according to the procedure outlined in Example 8 using different nucleotides and nucleotide analogs.
To test for dUTP or TTP incorporation, oligo 332 was used as a template and oligo 221L was used as a primer. To test for dCTP incorporation, oligo 333 was used as a template and oligo 221L was used as a primer. To test for dGTP incorporation, oligo 334 was used as a template and oligo 221L was used as a primer. To test for dATP incorporation, hairpin oligo 221 was used as both a primer and template.

With `Cc1cn([C@H]2C[C@H](O)[C@@H](COP(=O)(O)OP(=O)(O)OP(=O)(O)O)O2)c(=O)[nH]c1=O` [TTP, thymidine triphosphate, reference compound] as the compound, how does the Apparent fraction (Bst DNA polymerase v.2.0; molar fraction dUTP* 0.05) read?
Its Apparent fraction is 0.058.

What about the Red signal (Bst DNA polymerase v.2.0; molar fraction dUTP* 0.05, rest the named dUTP^0) of the same compound?
Its Red signal is 2,900.

What about the Apparent fraction (Bst DNA polymerase v.2.0; molar fraction dUTP* 0.5) of the same compound?
Its Apparent fraction is 0.42.

And the Red signal (Bst DNA polymerase v.2.0; molar fraction dUTP* 0.5, rest the named dUTP^0)?
Its Red signal is 21,000.

And the Tolerance (Bst DNA polymerase v.2.0; molar fraction dUTP* 0.05)?
The Tolerance was 1.2.

What about the Tolerance (Bst DNA polymerase v.2.0; molar fraction dUTP* 0.5) of the same compound?
Its Tolerance is 0.8.

What about the “C (context metric)” value (Bst DNA polymerase; Oligonucleotide template 1) of the same compound?
Its value is 0.86.

What about the “C (context metric)” value (Bst DNA polymerase; Oligonucleotide template 2) of the same compound?
The value was 0.73.

What about the “C (context metric)” value (Bst DNA polymerase; Oligonucleotide template 3) of the same compound?
Its value is 0.71.

And the “Relative Rate in Homopolymer Assay” value (Bst 2.0 DNA polymerase)?
Its value is 1.
